# Assay results taken from publication PMC9806890, “Purification and biochemical characterization of two laccase isoenzymes isolated from Trichoderma harzianum S7113 and its application for bisphenol A degradation” (Microbial Cell Factories, 2023).
# Tests used:
# Lac B (LacB) = tested on: T1, Lac B (LacB); assay: absorbance at […] nm, Lineweaver-Burk; format: biochemical, Trichoderma harzianum; details: 0.1 M sodium citrate, pH 4.5; ABTS 0.025-0.4 mM; O2 co-substrate
# T1 construct: 48 kDa by SDS-PAGE
# Lac A (LacA) = tested on: T2, Lac A (LacA); assay: absorbance at […] nm, Lineweaver-Burk; format: biochemical, Trichoderma harzianum; details: 0.1 M sodium citrate, pH 4.5; ABTS 0.025-0.4 mM; O2 co-substrate
# T2 construct: 63 kDa by SDS-PAGE
smiles,measurement,setting,value
"CCn1c(=NN=c2sc3cc(S(=O)(=O)O)ccc3n2CC)sc2cc(S(=O)(=O)O)ccc21 [ABTS, 2,2ʹ-Azinobis-(3-ethylbenzothiazoline-6-sulfonic acid)]",Km,Lac B (LacB),64 µM
same,Km,Lac A (LacA),100 µM
